From patent US6362220B1, “Anticonvulsant derivatives useful in reducing blood glucose levels” (Ortho-McNeil Pharmaceutical, Inc., priority 1999, dated 2002)

Experiments:
[1] = animal model of kindled epilepsy; cited from earlier work
[2] = human epilepsy; adjunctive therapy or monotherapy; cited from earlier work
[3] = retrospective analysis of long term open-label studies in epilepsy: blood glucose; assay type: in vivo, human; conditions: 14 epilepsy patients, overweight (>100 kg) with high blood glucose (>115 mg/dl); study mean daily dosage 622 mg/day, mean duration 689 days
[4] = several rodent models; cited from earlier work

For `CC1(C)O[C@@H]2[C@@H](CO[C@@]3(COS(N)(=O)=O)OC(C)(C)O[C@@H]23)O1` [topiramate, 2,3:4,5-bis-O-(1-methylethylidene)-β-D-fructopyranose sulfamate], which “seizure block in kindled epilepsy model” value [1] is on record?
The value was “effectively block seizures”.

And the “efficacy in treating seizures in clinical trials” value [2]?
Its value is “effective as adjunctive therapy or as monotherapy”.

What about the “reduction in blood glucose” value [3] of the same compound?
The value was 5.8%.

What about the “seizure block in rodent models of epilepsy” value [4] of the same compound?
Its value is “effectively block seizures”.
